Experimental data published in patent US7638535B2, “4-(aminomethyl)-piperidine benzamides as 5HT4-antagonists” (Janssen Pharmaceutica N.V., priority 2003, dated 2009).

Key:
h5-HT4b = biological target: T1, h5-HT4b (Homo sapiens, UniProt Q13639); assay: 5HT4 antagonism: [3H]GR113808 binding to membranes of h5-HT4b-HEK 293 clone 9 cells; conditions: displacement of [3H]GR113808 0.1 nM, h5-HT4b-HEK 293 membranes, 30 min at 25° C.; read-out: pIC50 (5HT4 antagonistic data) (converted)
T1 construct: expressed in transfected cells; host or cells: HEK 293 (clone 9), membrane preparation
T1 sequence (Q13639 whole entry): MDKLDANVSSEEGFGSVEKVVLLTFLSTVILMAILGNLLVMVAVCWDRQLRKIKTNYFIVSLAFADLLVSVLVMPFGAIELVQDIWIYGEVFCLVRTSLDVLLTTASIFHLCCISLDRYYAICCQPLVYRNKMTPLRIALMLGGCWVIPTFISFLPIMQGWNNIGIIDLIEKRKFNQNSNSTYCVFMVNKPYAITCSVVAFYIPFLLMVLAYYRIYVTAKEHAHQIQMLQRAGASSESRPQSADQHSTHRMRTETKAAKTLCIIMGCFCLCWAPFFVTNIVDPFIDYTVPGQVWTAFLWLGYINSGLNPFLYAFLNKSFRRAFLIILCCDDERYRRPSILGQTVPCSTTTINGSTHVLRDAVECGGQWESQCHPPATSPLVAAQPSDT
Summary of the method: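 Membranes from h5-HT4b-HEK 293 clone 9 cells were incubated with [3H]GR113808 (0.1 nM as added) in 50 mM HEPES-NaOH pH 7.4 for 30 min at 25 °C. Non-specific binding was defined with a 5-HT4 agonist. Bound radioligand was separated by filtration over PEI-soaked GF/B filters.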

[1] = Metabolic stability: % metabolism after 60 minutes incubation with active liver microsomes; type: in vitro ADME; conditions: compound 5 μM, microsomes 1 mg/ml, NADPH-generating system, 60 minutes at 37 degrees Celsius; for % metabolised compound (comparative structures of WO-00/37461): compound numbers of WO-00/37461
Description: Sub-cellular tissue preparations were made according to Gorrod et al. (Xenobiotica 5:453-462, 1975) by centrifugal separation after mechanical homogenization of tissue. Liver tissue was rinsed in ice-cold 0.1 M Tris-HCl (pH 7.4) buffer to wash excess blood. Tissue was then blotted dry, weighed and chopped coarsely using surgical scissors. The tissue pieces were homogenized in 3 volumes of ice-cold 0.1 M phosphate buffer (pH 7.4).
Tissue homogenates were centrifuged at 9000×g for 20 minutes at 4° C. The resulting supernatant was stored at −80° C. and is designated ‘S9’.
The S9 fraction can be further centrifuged at 100.000×g for 60 minutes (4° C.). The resulting supernatant was carefully aspirated, aliquoted and designated ‘cytosol’. The pellet was re-suspended in 0.1 M phosphate buffer (pH 7.4) in a final volume of 1 ml per 0.5 g original tissue weight and designated ‘microsomes’.
All sub-cellular fractions were aliquoted, immediately frozen in liquid nitrogen and stored at −80° C. until use.
For the samples to be tested, the incubation mixture contained PBS (0.1M), compound (5 μM), microsomes (1 mg/ml) and a NADPH-generating system (0.8 mM glucose-6-phosphate, 0.8 mM magnesium chloride and 0.8 Units of glucose-6-phosphate dehydrogenase). Control samples contained the same material but the microsomes were replaced by heat inactivated (10 minutes at 95 degrees Celsius) microsomes. Recovery of the compounds in the control samples was always 100%.
The mixtures were preincubated for 5 minutes at 37 degrees Celsius. The reaction was started at time point zero (t=0) by addition of 0.8 mM NADP and the samples were incubated for 60 minutes (t=60). The reaction was terminated by the addition of 2 volumes of DMSO. Then the samples were centrifuged for 10 minutes at 900×g and the supernatants were stored at room temperature for no longer as 24 hours before analysis. All incubations were performed in duplo. Analysis of the supernatants was performed with LC-MS analysis. Elution of the samples was performed on a Xterra MS C18 (50×4.6 mm, 5 μm, Waters, US). An Alliance 2790 (Supplier: Waters, US) HPLC system was used. Elution was with buffer A (25 mM ammoniumacetate (pH 5.2) in H2O/acetonitrile (95/5)), solvent B being acetonitrile and solvent C methanol at a flow rate of 2.4 ml/min. The gradient employed was increasing the organic phase concentration from 0% over 50% B and 50% C in 5 min up to 100% B in 1 minute in a linear fashion and organic phase concentration was kept stationary for an additional 1.5 minutes. Total injection volume of the samples was 25 μl.
A Quatro triple quadrupole mass spectrometer fitted with and ESP source was used as detector. The source and the desolvation temperature were set at 120 and 350° C. respectively and nitrogen was used as nebuliser and drying gas. Data were acquired in positive scan mode (single ion reaction). Cone voltage was set at 10 V and the dwell time was 1 second.
Metabolic stability was expressed as % metabolism of the compound after 60 minutes (equation given as example) of incubation in the presence of active microsomes (E(act))

| SMILES | melting point [°C] | IC50 (h5-HT4b) [nM] | % metabolised compound (compounds of present invention) [1] [%] | % metabolised compound (comparative structures of WO-00/37461) [1] [%] |
| --- | --- | --- | --- | --- |
| COCCCN1CC[C@@H](CNC(=O)c2cc(Cl)cc3c2OCCO3)[C@H](O)C1 [WO-00/37461 Co. No. 67, reference compound] | – | – | – | 30 |
| O=C(NC[C@@H]1CCN(CCCCO)C[C@H]1O)c1cc(Cl)cc2c1OCCO2 [WO-00/37461 Co. No. 68, reference compound] | – | – | – | 10 |
| N#CCCCN1CC[C@@H](CNC(=O)c2cc(Cl)cc3c2OCCO3)[C@H](O)C1 [WO-00/37461 Co. No. 74, reference compound] | – | – | – | 50.5 |
| CCCCN1CC[C@@H](CNC(=O)c2cc(Cl)cc3c2OCCCO3)[C@H](O)C1 [WO-00/37461 Co. No. 119, reference compound] | – | – | – | 68 |
| COCCCN1CC[C@@H](CNC(=O)c2cc(Cl)cc3c2OCCCO3)[C@H](O)C1 [WO-00/37461 Co. No. 120, reference compound] | – | – | – | 25 |
| CC(=O)CCCN1CC[C@@H](CNC(=O)c2cc(Cl)cc3c2OCCCO3)[C@H](O)C1 [WO-00/37461 Co. No. 121, reference compound] | – | – | – | 30 |
| O=C(NC[C@@H]1CCN(CC2CCCO2)C[C@H]1O)c1cc(Cl)cc2c1OCCCO2 (stereo partly shown) [WO-00/37461 Co. No. 122, reference compound] | – | – | – | 79 |
| CC1(CCCN2CC[C@@H](CNC(=O)c3cc(Cl)cc4c3OCCCO4)[C@H](O)C2)OCCO1 [WO-00/37461 Co. No. 124, reference compound] | – | – | – | 49.5 |
| O=C(NC[C@@H]1CCN(CCOCCO)C[C@H]1O)c1cc(Cl)cc2c1OCCCO2 [WO-00/37461 Co. No. 128, reference compound] | – | – | – | 26 |
| O=C(NC[C@@H]1CCN(CCC2OCCO2)C[C@H]1O)c1cc(Cl)cc2c1OCCCO2 [WO-00/37461 Co. No. 143, reference compound] | – | – | – | 63 |
| O=C(NC[C@@H]1CCN(CCCO)C[C@H]1O)c1cc(Cl)cc2c1OCCCO2 [WO-00/37461 Co. No. 144, reference compound] | – | – | – | 11 |
| O=C(NC[C@@H]1CCN(CCCCO)C[C@H]1O)c1cc(Cl)cc2c1OCCCO2 [WO-00/37461 Co. No. 160, reference compound] | – | – | – | 23 |
| COCCCCN1CC[C@@H](CNC(=O)c2cc(N)cc3c2OCCCO3)[C@H](O)C1 [compound 1] | 174 | 49 | – | – |
| CNc1cc2c(c(C(=O)NC[C@@H]3CCN(CCCO)C[C@H]3O)c1)OCCCO2 [compound 2] | 150 | 525 | – | – |
| CCCCN1CC[C@@H](CNC(=O)c2cc(N)c(Cl)c3c2OCCO3)[C@H](O)C1 [compound 11] | > 110 | 5.75 | – | – |
| CNc1cc2c(c(C(=O)NC[C@@H]3CCN(CCCC(=O)O)C[C@H]3O)c1)OCCO2 [compound 16] | 240 | 617 | – | – |
| CNc1cc(C(=O)NC[C@@H]2CCN(CCCOC)C[C@H]2O)c2c(c1Cl)OCCO2 [compound 26] | 106 to 108 | 19.1 | – | – |

Results, then the compound that gave them:

| melting point [°C] | IC50 (h5-HT4b) [nM] | % metabolised compound (compounds of present invention) [1] [%] | % metabolised compound (comparative structures of WO-00/37461) [1] [%] | SMILES |
| --- | --- | --- | --- | --- |
| > 130 | – | – | – | CNCCCN1CC[C@@H](CNC(=O)c2cc(NC)cc3c2OCCCO3)[C@H](O)C1 (hydrate or solvate) [compound 81] |
| – | 3.09 | 9 | – | COCCCN1CC[C@@H](CNC(=O)c2cc(C)cc3c2OCCCO3)[C@H](O)C1 (single isomer, unassigned) [compound 162] |
| 135 | 186 | – | – | CNc1cc2c(c(C(=O)NC[C@@H]3CCN(CCOC)C[C@H]3O)c1)OCCCO2 [compound 33] |
| – | 12.9 | 4 | – | COCCCN1CC[C@@H](CNC(=O)c2cc(OC)cc3c2OCCCO3)[C@H](O)C1 [compound 87] |
| – | 16.2 | 6 | – | COCc1cc2c(c(C(=O)NC[C@@H]3CCN(CC4CCCO4)C[C@H]3O)c1)OCCCO2 (stereo partly shown) [compound 125] |
| – | 10.2 | 5 | – | COCCCN1CC[C@@H](CNC(=O)c2cc(C#N)cc3c2OCCCO3)[C@H](O)C1 [compound 158] |
| – | 5.01 | 22 | – | CCCCN1CC[C@@H](CNC(=O)c2cc(C#N)cc3c2OCCCO3)[C@H](O)C1 [compound 159] |
| – | 2.29 | 11 | – | Cc1cc2c(c(C(=O)NC[C@@H]3CCN(CCC4OCCO4)C[C@H]3O)c1)OCCCO2 [compound 163] |
| – | 15.8 | 1 | – | N#Cc1cc2c(c(C(=O)NC[C@@H]3CCN(CCCO)C[C@H]3O)c1)OCCCO2 [compound 165] |
| – | 2 | 4 | – | Cc1cc2c(c(C(=O)NC[C@@H]3CCN(CCCO)C[C@H]3O)c1)OCCCO2 [compound 168] |
| – | 108 | 4 | – | CCNc1cc2c(c(C(=O)NC[C@@H]3CCN(CCCOC)C[C@H]3O)c1)OCCCO2 [compound 177] |
| – | 3.47 | 10 | – | CCCCN1CC[C@@H](CNC(=O)c2cc(CC#N)cc3c2OCCCO3)[C@H](O)C1 [compound 183] |
| – | 20 | 12 | – | COCCCCN1CC[C@@H](CNC(=O)c2cc(CC#N)cc3c2OCCCO3)[C@H](O)C1 [compound 184] |
| – | 19.5 | 3 | – | COc1cc2c(c(C(=O)NC[C@@H]3CCN(CCCO)C[C@H]3O)c1)OCCCO2 [compound 185] |
| – | 5.01 | 0 | – | Cc1cc2c(c(C(=O)NC[C@@H]3CCN(CC4CCCO4)C[C@H]3O)c1)OCCCO2 (stereo partly shown) [compound 186] |
| – | 11.5 | 18 | – | COc1cc2c(c(C(=O)NC[C@@H]3CCN(CCC4OCCO4)C[C@H]3O)c1)OCCCO2 [compound 187] |
| 136 | – | – | – | Cc1cc2c(c(C(=O)NC[C@@H]3CCN(CCCC(N)=O)C[C@H]3O)c1)OCCCO2 [compound 197] |
| – | 4.37 | 8 | – | COCCCN1CC[C@@H](CNC(=O)c2cc(C#N)cc3c2OCCCO3)[C@H](O)C1 [compound 202] |
| – | 2.95 | 13 | – | Cc1cc2c(c(C(=O)NC[C@@H]3CCN(CCOCCO)C[C@H]3O)c1)OCCCO2 [compound 211] |
| – | 0.759 | 14 | – | Cc1cc2c(c(C(=O)NC[C@@H]3CCN(CCCCO)C[C@H]3O)c1)OCCCO2 [compound 225] |
| – | 0.501 | 24 | – | Cc1cc2c(c(C(=O)NC[C@@H]3CCN(CCCC4(C)OCCO4)C[C@H]3O)c1)OCCCO2 [compound 227] |
| – | 0.398 | 6 | – | Cc1cc2c(c(C(=O)NC[C@@H]3CCN(CCCCO)C[C@H]3O)c1)OCCO2 [compound 228] |
| – | 0.55 | 12 | – | CC(=O)CCCN1CC[C@@H](CNC(=O)c2cc(C)cc3c2OCCCO3)[C@H](O)C1 [compound 229] |
| – | 12.6 | 7 | – | N#CCCCN1CC[C@@H](CNC(=O)c2cc(C#N)cc3c2OCCO3)[C@H](O)C1 [compound 246] |
| – | 3.98 | 12 | – | COCCCN1CC[C@@H](CNC(=O)c2cc(C#N)cc3c2OCCO3)[C@H](O)C1 [compound 247] |
